Km data for one compound are collected here from article PMC9110600, “Purification, identification and characterization of Nag2 N-acetylglucosaminidase from Trichoderma virens strain mango” (Botanical Studies, 2022).

In the assay the target is T1, TvmNAG2 (Trichoderma virens, UniProt G9MXZ5).
T1 construct: gene NAG2; mature (signal peptide removed)
Description: p-nitrophenol release at […] nm, Lineweaver-Burk. Format: biochemical. To be noted: standard assay: 50 mM phosphate buffer pH 5, 65 °C, 30 min.

The structures appear in SMILES notation.

T1 sequence (G9MXZ5 entry or part of it): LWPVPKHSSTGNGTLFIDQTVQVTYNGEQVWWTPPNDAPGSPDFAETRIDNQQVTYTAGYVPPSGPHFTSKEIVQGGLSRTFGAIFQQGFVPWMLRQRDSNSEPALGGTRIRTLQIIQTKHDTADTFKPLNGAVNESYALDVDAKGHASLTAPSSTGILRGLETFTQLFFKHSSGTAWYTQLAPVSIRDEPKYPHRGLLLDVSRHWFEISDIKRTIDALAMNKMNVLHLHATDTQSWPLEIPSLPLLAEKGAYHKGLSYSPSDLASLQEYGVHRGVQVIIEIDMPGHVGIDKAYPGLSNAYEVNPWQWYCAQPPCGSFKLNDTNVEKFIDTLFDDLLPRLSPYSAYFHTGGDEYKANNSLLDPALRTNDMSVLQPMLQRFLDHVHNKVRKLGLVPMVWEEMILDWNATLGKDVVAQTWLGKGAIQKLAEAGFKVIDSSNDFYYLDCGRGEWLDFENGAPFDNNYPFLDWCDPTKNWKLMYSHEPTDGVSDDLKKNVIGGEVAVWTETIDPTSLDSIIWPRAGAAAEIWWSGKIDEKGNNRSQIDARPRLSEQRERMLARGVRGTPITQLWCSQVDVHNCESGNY

As for `CC(=O)N[C@H]1[C@H](Oc2ccc([N+](=O)[O-])cc2)O[C@H](CO)[C@@H](O)[C@@H]1O` [pNP-NAG], the Km was about 450 µM.

One may read the Km as the substrate concentration at which the rate is half of its maximum.
